From patent US7858329B2, “Antibody tools for the diagnostic use in the medical therapy with inhibitors of histone deacetylases” (TopoTarget Germany AG, priority 2002, dated 2010)

What was measured:
[1] = tested on: stage III/IV non-small cell lung cancer; conditions: phase II, monotherapy; cited from earlier work
T-cell lymphomas = conditions: phase II; cited from earlier work
[2] = tested on: control-transduced (MCSV) primary tumor-derived cells; assay: Sensitivity to HDAC inhibitor of transduced primary tumor-derived cell culture; type: cell-based; conditions: high histone H4 acetylation
[3] = tested on: tumor cells transduced with HDAC/MTA constructs (HDAC-1, HDAC-2, MTA1); assay: as above; type: cell-based; conditions: histone hypoacetylation
Description: An aliquot of the cells was collected, and Western blot analysis (using antibodies directed against acetylated histone H4) was performed on protein extracts prepared from these cells, to verify that overexpression of either HDAC, or of MTA1, led to a decrease in histone acetylation levels of the tumor cells.

[4] = tested on: cells derived from "class B" primary human breast tumors; assay: Apoptosis of cultured primary breast tumor cells treated with HDAC inhibitors; type: cell-based; conditions: cells from three class B tumors
Description: (§1) To establish whether this classification may have additional correlations with tumor biology and potential influences on the choice of clinical therapeutic treatments, the sensitivity of tumor cells derived from “class A” or “class B” primary human breast tumors to various HDAC inhibitors was evaluated in vitro (FIG. 7-8). To investigate this further, cells derived from excision surgery of primary breast tumors were cultured (on which in parallel IHC using the T25 antibody was performed to establish the histone acetylation levels in vivo) following standard procedures (Elenbaas et al., 2001, Genes Dev 15, 50-65). After a few passages in culture (in the absence of fetal bovine serum, to eliminate contamination of fibroblasts), the cell population is greatly enriched in tumor cells. The bulk populations of cells derived from four “class A” and three “class B” tumors were then treated with VPA, or TSA (FIGS. 7-8). […] The immunohistochemical classification as described here, can therefore be used to predict the response of tumor cells to treatment with HDAC inhibitors and could thus be used for prognostic predictions whether a patient should be treated with such inhibitors.

[5] = tested on: cells derived from "class A" (globally hypoacetylated) primary human breast tumors; assay: as above; type: cell-based; conditions: cells from four class A tumors
Description: as §1

[6] = tested on: acetylated histone H3 and histone H4 in U937 cells; assay: Western blot of histone acetylation in U937 cells treated with HDACi; type: cell-based, human; conditions: for levels of acetylated histone H3 and histone H4 by Western blot: treatment in vitro for 6-12 hours
[7] = tested on: histone acetylation in U-937 cells; assay: Flow cytometry of histone acetylation (T52 staining) in U937 cells; type: cell-based, human; conditions: 10 ng/ml for 4 hrs, untreated cells 90
Description: Human U-937 cells were grown in RPMI-1640 medium supplemented with 10% Fetal Bovine Serum in standard culture conditions.
Exponentially growing U-937 cells were treated for 4 hrs with 10 ng/ml Trichostatin A (TSA, Sigma Aldrich). After the treatment cells were washed with cold phosphate buffer saline (PBS), counted and fixed in 1% formaldehyde in PBS for 15 minutes. Fixed cells were then washed, resuspended in PBS, and stocked at 4° C.
Histone acetylation analysis was performed according to the following procedure. Cells were fixed for 15 minutes in 1% formaldehyde in PBS. 1×10^6 cells/sample were washed with PBS+1% BSA and permeabilised with 200 μl of 0.1% Triton X100 in PBS for 10 min at room temperature (to allow for the antibody to reach acetylated nuclear proteins, such as histones). After washing with PBS+1% BSA pellets were incubated with 500 μl of 10% normal goat serum (NGS) in PBS for 20 min at 4° C. Histone acetylation levels were detected by incubation with T52 mouse monoclonal antibody (1 μg/ml in PBS+1% BSA). […]
Flow cytometry analysis was performed using a FACScan flow cytometer (Becton Dickinson), acquiring at least 10,000 events/sample. The instrument was equipped with a bandpass 530/30 nm optical filter for FITC fluorescence detection (FL1 channel) and a 650 nm longpass optical filter in front of the PI (FL3) channel detector. […]

[8] = tested on: histone acetylation in peripheral blood mononuclear cells; assay: Flow cytometry of histone acetylation in blood mononuclear cells of patients under VPA treatment; type: in vivo, human; conditions: 10 to 30 mg/kg/day
Description: Histone acetylation analysis was performed according to the following procedure. Cells were fixed for 15 minutes in 1% formaldehyde in PBS. 1×10^6 cells/sample were washed with PBS+1% BSA and permeabilised with 200 μl of 0.1% Triton X100 in PBS for 10 min at room temperature (to allow for the antibody to reach acetylated nuclear proteins, such as histones). After washing with PBS+1% BSA pellets were incubated with 500 μl of 10% normal goat serum (NGS) in PBS for 20 min at 4° C. Histone acetylation levels were detected by incubation with T52 mouse monoclonal antibody (1 μg/ml in PBS+1% BSA). Detection was performed by incubation with a fluorescein isothiocyanate (FITC)-conjugated affinity pure F(ab′)2 fragment of goat anti-mouse IgG (Sigma) for 1 h at room temperature in the dark.

[9] = Plasmatic VPA concentration in treated patients; type: in vivo, human; conditions: 10 to 30 mg/kg/day
Description: HDAC inhibitors are currently being tested for their clinical use in tumor patients (Marks et al., 2001, Nat Rev Cancer 1, 194-202). Therefore, the inventors evaluated the response to valproic acid, VPA (a HDAC inhibitor currently in clinical trials for several forms of cancer), in blood samples of patients subjected to VPA treatment. Peripheral blood was collected periodically before/at various times of VPA treatment (10 to 30 mg/kg/day; plasmatic VPA concentration: 0,75 mM), mononuclear cells were isolated by Ficoll analysis and then analyzed as described. […] The histone acetylation level measured in blood cells may serve as marker to evaluate the efficacy of HDAC inhibitor treatment of patients suffering from tumors, including solid tumors, to further orientate the treatment schedule.

[10] = tested on: acetylated histone H4 in U937 cells; assay: Immunohistochemistry (T25) of U937 cells treated with HDACi; type: cell-based, human; conditions: 12 hours, 1 mM, T25 antibody
Description: To evaluate the specificity of the T25 antibody in immunohistochemistry (IHC), the inventors performed a preliminary test in an established cell line (U937 cells). […] Untreated cells, or cells treated for 12 hours with VPA (1 mM), were either processed for Western blot analysis (FIG. 3A), or fixed in formalin and then processed for immunohistochemistry (FIG. 1B). […] The T25 antibody can therefore be used for the analysis of histone acetylation levels by western blot analysis and immunohistochemistry (IHC).

CCCC(=O)OCOC(=O)C(C)(C)C [Pivanex]
clinical activity [1]: demonstrating activity

C/C=C1\NC(=O)[C@H]2CSSCC/C=C/[C@H](CC(=O)N[C@H](C(C)C)C(=O)N2)OC(=O)[C@H](C(C)C)NC1=O [depsipeptide]
clinical outcome (T-cell lymphomas): used successfully

CC(/C=C/C(=O)NO)=C\[C@@H](C)C(=O)c1ccc(N(C)C)cc1 [TSA, Trichostatin A]
sensitivity to treatment (apoptosis) [2]: resistant
apoptosis [3]: up to 50%
apoptosis upon treatment with the HDAC inhibitors [4]: totally resistant
apoptosis upon treatment with the HDAC inhibitors [5]: showed apoptosis
acetylated histones H3 and H4 bands in Western blot ([6]; detection with T52 antibody (FIG. 9)): greatly increased
levels of acetylated histone H3 and histone H4 by Western blot [6]: drastic increase
mean fluorescence value (FL1-H), T52 staining [7]: 450

CCCC(CCC)C(=O)O [VPA, valproic acid]
Histone acetylation levels, increase ([8]; after 7-days of treatment (day 8)): > 3 fold
Histone acetylation levels ([8]; day 28-35): further increased
plasmatic VPA concentration [9]: 0,75 mM
acetylated histone H4 staining in immunohistochemistry [10]: increase in the intensity of staining and number of stained cell nuclei
apoptosis upon treatment with the HDAC inhibitors [4]: totally resistant
apoptosis upon treatment with the HDAC inhibitors [5]: showed apoptosis
levels of acetylated histone H3 and histone H4 by Western blot [6]: drastic increase
